The values below come from ChEMBL document CHEMBL1140386, “Pharmacophore-based design of HIV-1 integrase strand-transfer inhibitors” (J Med Chem, 2005).

Assay [1] has as its target T1, Human immunodeficiency virus type 1 integrase (Human immunodeficiency virus 1, UniProt Q7ZJM1).
Description: Strand transfer inhibitory activity against HIV-1 integrase
The subject of assay [2] is MT4. The experiment in a line: Selectivity index was measured by the ratio of CC50/EC50. It is filed as functional.
The target of assay [3] is T1, Human immunodeficiency virus type 1 integrase. In words: In vitro concentration required to inhibit the overall HIV-1 integrase strand transfer.
The target is the same in assay [4]. The experiment in a line: In vitro concentration required to inhibit the HIV-1 integrase strand transfer.
The subject of assay [5] is MT4. In words: Cytotoxic concentration required to reduce MT-4 cell viability. It is filed as functional. The settings on record: Homo sapiens.
Assay [6] concerns Human immunodeficiency virus 1. In words: Effective concentration required to reduce HIV-1-induced cytopathic effect in MT-4 cells. It is filed as functional, organism-based. The settings on record: Human immunodeficiency virus 1, MT4.
Assay [7] has as its target T1, Human immunodeficiency virus type 1 integrase. In words: In vitro concentration required to inhibit the HIV-1 integrase 3'-processing.

T1 sequence (Q7ZJM1 whole entry): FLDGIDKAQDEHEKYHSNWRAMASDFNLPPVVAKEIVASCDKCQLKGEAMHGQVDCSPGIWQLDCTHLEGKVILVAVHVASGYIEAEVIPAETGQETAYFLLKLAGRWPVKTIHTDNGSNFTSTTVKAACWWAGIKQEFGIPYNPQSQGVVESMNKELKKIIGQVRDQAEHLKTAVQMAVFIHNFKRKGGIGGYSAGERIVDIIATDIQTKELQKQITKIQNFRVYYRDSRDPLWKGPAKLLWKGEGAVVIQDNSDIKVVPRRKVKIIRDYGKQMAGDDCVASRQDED

With `O=C(O)C(=O)/C=C(\O)c1ccc(Oc2ccccc2)cc1`, the IC50 in assay [1] amounted to 11400 nM.
`O=C(O)C(=O)/C=C(\O)c1cn(Cc2ccccc2)c2ccccc12`: the Selectivity index in assay [2] was above 4. Further, the IC50 in assay [3] came out at 20 nM; in assay [4], 30 nM; in assay [7], 8280 nM. This molecule also gave a CC50 in assay [5] above 78000 nM. In assay [6], this molecule returned an EC50 of 19900 nM.
For `CCCCOC(=O)C(=O)/C=C(\O)c1cccn1Cc1ccc(F)cc1`, in assay [1], 100000 nM corresponded to half-maximal inhibition (IC50).
The same measure, in the same setting: as for `O=C(O)C(=O)/C=C(\O)c1cccc(Cc2ccccc2)c1`, the figure is 10 nM.
In the case of `CCOC(=O)C(=O)/C=C(\O)c1cn(Cc2ccccc2)c2ccc(OC)cc12`, the Selectivity index in assay [2] amounted to 5. Besides, the IC50 in assay [3] is 150 nM; in assay [4], 680 nM; in assay [7], 162000 nM. Also, the CC50 in assay [5] was 29000 nM. Also, it took 6070 nM to reach a half-maximal effect in assay [6] (EC50).
As for `O=C(O)C(=O)/C=C(\O)c1cn(Cc2ccccc2)c2ccc(Cl)cc12`, the Selectivity index in assay [2] came out at 8. Moreover, the IC50 in assay [3] was determined as 10 nM; in assay [4], 100 nM; in assay [7], 970 nM. In assay [5], this molecule came in with a CC50 of 37200 nM. For the same molecule, in assay [6], the EC50 worked out at 4780 nM.
`COc1ccc(Cc2ccccc2)cc1/C(O)=C/C(=O)C(=O)O` registered an IC50 in assay [1] of 100 nM.
With `COc1ccc2c(c1)c(/C(O)=C/C(=O)C(=O)O)cn2Cc1ccc(F)cc1`, the Selectivity index in assay [2] is 11. Besides, the IC50 in assay [3] amounted to 19 nM; in assay [4], 4 nM; in assay [7] it was 2710 nM. Further, it took 63500 nM to reach half-maximal cytotoxicity in assay [5] (CC50). In addition, in assay [6], a half-maximal response (EC50) required 5810 nM.
`O=C(O)C(=O)/C=C(\O)c1ccc(Cc2ccccc2)s1` returned an IC50 in assay [1] of 500 nM.
As for `COc1ccc2c(c1)c(/C(O)=C/C(=O)C(=O)O)cn2Cc1ccccc1`, the Selectivity index in assay [2] was determined as 16. The IC50 in assay [3] came to 17 nM; in assay [4], 21 nM; in assay [7], 2160 nM. Further, the CC50 in assay [5] was found to be 86400 nM. The molecule also displayed an EC50 in assay [6] of 5320 nM.
Take `CCOC(=O)C(=O)/C=C(\O)c1cn(Cc2ccccc2)c2ccc(Cl)cc12`: the Selectivity index in assay [2] came out at 8. Besides, the figures for the IC50 in assay [3], in assay [4] and in assay [7] were 220 nM, 30 nM and 10200 nM, respectively. In assay [5], this molecule returned a CC50 of 34000 nM. Also, the EC50 in assay [6] came out at 4500 nM.
For the molecule `CCOC(=O)C(=O)/C=C(\O)c1cn(Cc2ccc(F)cc2)c2ccccc12`, the Selectivity index in assay [2] was determined as 3. The IC50 was 1200 nM in assay [3], 1500 nM in assay [4] and above 272000 nM in assay [7]. The CC50 in assay [5] was 27200 nM. The midpoint of the response in assay [6], the EC50, lay at 9250 nM.
In turn, `COc1ccc(/C(O)=C/C(=O)C(=O)O)cc1Cc1ccccc1` returned an IC50 in assay [1] of 150 nM.
Regarding `O=C(O)C(=O)/C=C(\O)c1ccsc1Cc1ccccc1`, the IC50 in assay [1] came to 180 nM.
As for `O=C(O)C(=O)/C=C(\O)c1cccc(Cc2cccc(F)c2)c1`, the IC50 in assay [1] amounted to 250 nM.
As for `O=C(O)C(=O)/C=C(\O)c1cn(Cc2ccc(F)cc2)c2ccccc12`, in assay [2], the Selectivity index is above 14. Further, the figures for the IC50 in assay [3], in assay [4] and in assay [7] were 2 nM, 15 nM and 5300 nM, respectively. The CC50 in assay [5] was above 74000 nM. In assay [6], the midpoint of the response, the EC50, lay at 5310 nM.
Turning to `O=C(O)C(=O)/C=C(\O)c1cccc(Br)c1`, the midpoint of inhibition in assay [1], the IC50, lay at 2500 nM.
Take `O=C(O)C(=O)/C=C(\O)c1cc(OCc2ccccc2)cc(OCc2ccccc2)c1`: the IC50 in assay [1] worked out at 100 nM.
Regarding `CCOC(=O)C(=O)/C=C(\O)c1cn(Cc2ccccc2)c2ccccc12`, in assay [2], the Selectivity index amounted to 8. In addition, the IC50 in assay [3] was 760 nM; in assay [4] it was 5400 nM; in assay [7], above 286000 nM. Further, the CC50 in assay [5] turned out to be 120000 nM. For the same molecule, in assay [6], the EC50 is 14300 nM.
Turning to `O=C(O)C(=O)/C=C(\O)c1cn(Cc2ccc(F)cc2)c2ccc(Cl)cc12`, the Selectivity index in assay [2] was found to be 19. For the same molecule, the IC50 in assay [3] is 200 nM; in assay [4], 10 nM; in assay [7], 1590 nM. The molecule also displayed a CC50 in assay [5] of 53400 nM. The EC50 in assay [6] stood at 2780 nM.
Take `CCOC(=O)C(=O)/C=C(\O)c1cn(Cc2ccc(F)cc2)c2ccc(Cl)cc12`: the Selectivity index in assay [2] was 8. For the same molecule, the IC50 in assay [3] was 390 nM; in assay [4] it was 70 nM; in assay [7], 11500 nM. Also, in assay [5], the CC50 amounted to 26500 nM. The EC50 in assay [6] came out at 3420 nM.
As for `COc1cc(Cc2ccccc2)cc(/C(O)=C/C(=O)C(=O)O)c1`, in assay [1], half-maximal inhibition (IC50) was put at 140 nM.
On the same count and under the same terms, as for `CC(C)OC(=O)C(=O)/C=C(\O)c1cccn1Cc1ccc(F)cc1`, the figure is 100000 nM; as for `CCC(=O)C(=O)/C=C(\O)c1c[nH]c2ccc(Cl)cc12`, 6900 nM; as for `O=C(O)C(=O)/C=C(\O)c1cccn1Cc1ccccc1`, 220 nM.
For the molecule `CCOC(=O)C(=O)/C=C(\O)c1cn(Cc2ccc(F)cc2)c2ccc(OC)cc12`, the Selectivity index in assay [2] turned out to be 9. Moreover, the IC50 in assay [3] was 220 nM; in assay [4], 800 nM; in assay [7], 131000 nM. The same molecule yielded a CC50 in assay [5] of 127000 nM. For the same molecule, in assay [6], it took 14300 nM to reach a half-maximal effect (EC50).
`NC(=O)C(=O)Nc1nc(C(=O)NCc2ccc(F)cc2)c(O)c2ncccc12` returned an IC50 in assay [1] of 40 nM.
Consider `O=C(NCc1ccc(F)cc1)c1nc(N2CCCCS2(=O)=O)c2cccnc2c1O`, for which the Selectivity index in assay [2] stood at 457. Also, the IC50 in assay [3] was determined as 0.5 nM; in assay [4], 2.5 nM; in assay [7], 120 nM. This molecule registered a CC50 in assay [5] of 2150 nM. This molecule also yielded an EC50 in assay [6] of 4.7 nM.
With `O=C(O)C(=O)/C=C(\O)c1ccnc2ccccc12`, half-maximal inhibition in assay [1] (IC50) required 100000 nM.
In turn, `O=C(/C=C(\O)c1c[nH]c2ccc(Cl)cc12)c1nc[nH]n1` showed an IC50 in assay [1] of 2000 nM.
